Assay results: US20140179664A1, “Heterocyclyl Pyrimidine Analogues As JAK Inhibitors” (Cellzome Limited, priority 2011, published 2014)

How the values were obtained:
Format in all cases: binding
TYK2 = biological target: T1, TYK2 (Homo sapiens, UniProt P29597); experiment: Kinobeads assay, TYK2; details: mixed Molt4/Ramos lysate, read-out: Inhibition values (IC50) TYK2
T1 construct: endogenous in cells; host or cells: Molt4 (ATCC CRL-1582) and Ramos (ATCC CRL-1596), mixed lysate 1:2
Description: (§1) The compounds of the present invention as described in the previous examples were tested in a Kinobeads™ assay as described for ZAP-70 (WO-A 2007/137867). Briefly, test compounds (at various concentrations) and the affinity matrix with the immobilized aminopyrido-pyrimidine ligand 24 were added to cell lysate aliquots and allowed to bind to the proteins in the lysate sample. After the incubation time the beads with captured proteins were separated from the lysate. Bound proteins were then eluted and the presence of JAK1, JAK2, JAK3 and TYK2 was detected and quantified using specific antibodies in a dot blot procedure and the Odyssey infrared detection system. Dose response curves for individual kinases were generated and IC50 values calculated. Kinobeads™ assays for ZAP-70 (WO-A 2007/137867) and for kinase selectivity profiling (WO-A 2006/134056) have been previously described.
(§2) The affinity matrix was washed two times with 15 mL of lx DP buffer containing 0.2% NP40 (IGEPAL® CA-630, Sigma, #13021) and then resuspended in 1×DP buffer containing 0.2% NP40 (3% beads slurry).
(§3) 5×DP buffer: 250 mM Tris-HCl pH 7.4, 25% Glycerol, 7.5 mM MgCl2, 750 mM NaCl, 5 mM Na3VO4; filter the 5×DP buffer through a 0.22 μm filter and store in aliquots at −80° C. The 5×DP buffer is diluted with H2O to 1×DP buffer containing 1 mM DTT and 25 mM NaF.
(§4) Stock solutions of test compounds were prepared in DMSO. In a 96 well plate […] solution of diluted test compounds at 5 mM in DMSO were prepared. Starting with this solution a 1:3 dilution series (9 steps) was prepared. For control experiments (no test compound) a buffer containing 2% DMSO was used.
(§5) Molt4 cells (ATCC catalogue number CRL-1582) and Ramos cells (ATCC catalogue number CRL-1596) were grown in 1 L Spinner flasks (Integra Biosciences, #182101) in suspension in RPMI 1640 medium (Invitrogen, #21875-034) supplemented with 10% Fetal Bovine Serum (Invitrogen) at a density between 0.15×10^6 and 1.2×10^6 cells/mL. Cells were harvested by centrifugation, washed once with 1×PBS buffer (Invitrogen, #14190-094) and cell pellets were frozen in liquid nitrogen and subsequently stored at −80° C. Cells were homogenized in a Potter S homogenizer in lysis buffer: 50 mM Tris-HCl, 0.8% NP40, 5% glycerol, 150 mM NaCl, 1.5 mM MgCl2, 25 mM NaF, 1 mM sodium vanadate, 1 mM DTT, pH 7.5. One complete EDTA-free tablet (protease inhibitor cocktail, Roche Diagnostics, 1873580) per 25 mL buffer was added. The material was dounced 10 times using a mechanized POTTER S, transferred to 50 mL falcon tubes, incubated for 30 minutes on ice and spun down for 10 minutes at 20,000 g at 4° C. (10,000 rpm in Sorvall SLA600, precooled). The supernatant was transferred to an ultracentrifuge (UZ)-polycarbonate tube (Beckmann, 355654) and spun for 1 hour at 100.000 g at 4° C. (33.500 rpm in Ti50.2, precooled). The supernatant was transferred again to a fresh 50 mL falcon tube, the protein concentration was determined by a Bradford assay (BioRad) and samples containing 50 mg of protein per aliquot were prepared. The samples were immediately used for experiments or frozen in liquid nitrogen and stored frozen at −80° C.
(§6) Cell lysate (approximately 50 mg protein per plate) was thawed in a water bath at room temperature and then stored on ice. To the thawed cell lysate 1×DP 0.8% NP40 buffer containing protease inhibitors (1 tablet for 25 mL buffer; EDTA-free protease inhibitor cocktail; Roche Diagnostics 1873580) was added in order to reach a final protein concentration of 10 mg/mL total protein. The diluted cell lysate was stored on ice. Mixed Molt4/Ramos lysate was prepared by combining one volume of Molt4 lysate and two volumes of Ramos lysate (ratio 1:2).
(§7) To a 96 well filter plate (Multiscreen HTS, BV Filter Plates, Millipore #MSBVN1250) were added per well: 100 μL affinity matrix (3% beads slurry), […], of compound solution, and 50 μL of diluted lysate. […]

JAK2 = biological target: T2, JAK2 (Homo sapiens, UniProt O60674); experiment: Kinobeads assay, JAK2; details: mixed Molt4/Ramos lysate, read-out: Inhibition values (IC50) JAK2
T2 construct: endogenous in cells; host or cells: Molt4 (ATCC CRL-1582) and Ramos (ATCC CRL-1596), mixed lysate 1:2
T2 sequence (O60674 whole entry): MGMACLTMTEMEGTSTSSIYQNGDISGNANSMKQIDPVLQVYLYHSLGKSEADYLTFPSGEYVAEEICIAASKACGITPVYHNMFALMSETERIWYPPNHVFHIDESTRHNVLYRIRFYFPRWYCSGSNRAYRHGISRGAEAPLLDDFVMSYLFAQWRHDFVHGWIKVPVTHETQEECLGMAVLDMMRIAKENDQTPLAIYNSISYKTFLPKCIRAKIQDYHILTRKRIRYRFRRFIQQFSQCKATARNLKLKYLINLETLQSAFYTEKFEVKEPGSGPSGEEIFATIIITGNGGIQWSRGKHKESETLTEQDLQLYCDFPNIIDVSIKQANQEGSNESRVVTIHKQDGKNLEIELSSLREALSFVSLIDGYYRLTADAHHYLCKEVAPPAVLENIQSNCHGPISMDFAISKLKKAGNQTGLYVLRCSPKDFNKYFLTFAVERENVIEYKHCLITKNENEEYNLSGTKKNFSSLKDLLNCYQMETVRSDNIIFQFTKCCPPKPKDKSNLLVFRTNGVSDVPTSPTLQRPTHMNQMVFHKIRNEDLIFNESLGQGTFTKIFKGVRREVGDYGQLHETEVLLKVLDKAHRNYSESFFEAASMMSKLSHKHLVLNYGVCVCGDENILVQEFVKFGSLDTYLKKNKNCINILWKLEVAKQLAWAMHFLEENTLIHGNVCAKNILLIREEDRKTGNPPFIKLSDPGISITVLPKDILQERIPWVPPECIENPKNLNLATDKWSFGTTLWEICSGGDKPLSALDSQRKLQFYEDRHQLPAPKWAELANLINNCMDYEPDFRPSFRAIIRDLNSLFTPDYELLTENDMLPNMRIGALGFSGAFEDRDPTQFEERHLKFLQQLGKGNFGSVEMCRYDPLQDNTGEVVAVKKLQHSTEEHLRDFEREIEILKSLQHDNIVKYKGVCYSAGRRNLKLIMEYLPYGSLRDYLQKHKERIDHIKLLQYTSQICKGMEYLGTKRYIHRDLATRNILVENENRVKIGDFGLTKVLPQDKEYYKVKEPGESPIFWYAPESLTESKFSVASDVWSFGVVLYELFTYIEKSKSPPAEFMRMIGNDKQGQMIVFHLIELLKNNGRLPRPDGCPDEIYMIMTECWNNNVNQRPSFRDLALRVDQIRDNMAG
Description: as §1, §2, §3, §4, §5, §6, §7

JAK1 = biological target: T3, JAK1 (Homo sapiens, UniProt P23458); experiment: Kinobeads assay, JAK1; details: mixed Molt4/Ramos lysate, read-out: Inhibition values (IC50) JAK1
T3 construct: endogenous in cells; host or cells: Molt4 (ATCC CRL-1582) and Ramos (ATCC CRL-1596), mixed lysate 1:2
T3 sequence (P23458 whole entry): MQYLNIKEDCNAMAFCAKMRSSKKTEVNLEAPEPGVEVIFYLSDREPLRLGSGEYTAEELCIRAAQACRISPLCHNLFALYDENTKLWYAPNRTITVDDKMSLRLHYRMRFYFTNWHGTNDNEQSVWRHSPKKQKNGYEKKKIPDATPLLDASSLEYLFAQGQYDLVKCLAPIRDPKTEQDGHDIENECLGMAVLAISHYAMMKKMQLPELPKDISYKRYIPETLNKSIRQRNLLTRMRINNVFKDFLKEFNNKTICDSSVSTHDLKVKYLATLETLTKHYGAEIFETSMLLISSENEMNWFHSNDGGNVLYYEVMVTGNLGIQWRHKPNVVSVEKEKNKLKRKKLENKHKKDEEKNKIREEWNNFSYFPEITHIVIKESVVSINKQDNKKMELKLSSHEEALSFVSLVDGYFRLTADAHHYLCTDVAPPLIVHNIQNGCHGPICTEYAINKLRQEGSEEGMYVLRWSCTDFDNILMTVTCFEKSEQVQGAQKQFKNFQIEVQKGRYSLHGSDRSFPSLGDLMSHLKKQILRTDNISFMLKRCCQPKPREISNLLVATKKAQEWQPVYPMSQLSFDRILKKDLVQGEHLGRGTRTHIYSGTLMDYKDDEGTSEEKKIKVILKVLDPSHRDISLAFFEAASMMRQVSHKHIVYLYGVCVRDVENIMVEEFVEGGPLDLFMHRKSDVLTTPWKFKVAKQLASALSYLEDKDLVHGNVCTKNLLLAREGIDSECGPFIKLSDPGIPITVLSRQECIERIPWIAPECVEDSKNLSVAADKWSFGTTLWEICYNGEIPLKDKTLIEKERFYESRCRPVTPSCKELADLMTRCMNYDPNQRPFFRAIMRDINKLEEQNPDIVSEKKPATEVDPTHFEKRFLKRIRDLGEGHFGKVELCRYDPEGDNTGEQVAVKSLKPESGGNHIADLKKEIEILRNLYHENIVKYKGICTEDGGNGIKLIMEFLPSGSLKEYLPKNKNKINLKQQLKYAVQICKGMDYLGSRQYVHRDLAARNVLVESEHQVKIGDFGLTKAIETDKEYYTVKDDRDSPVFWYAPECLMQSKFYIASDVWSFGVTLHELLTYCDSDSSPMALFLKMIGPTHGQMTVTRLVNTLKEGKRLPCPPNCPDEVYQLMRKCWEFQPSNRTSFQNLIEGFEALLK
Description: After the incubation time the beads with captured proteins were separated from the lysate. Bound proteins were then eluted and the presence of JAK1, JAK2, JAK3 and TYK2 was detected and quantified using specific antibodies in a dot blot procedure and the Odyssey infrared detection system. Dose response curves for individual kinases were generated and IC50 values calculated.
as §3
Stock solutions of test compounds were prepared in DMSO. […] Starting with this solution a 1:3 dilution series (9 steps) was prepared. For control experiments (no test compound) a buffer containing 2% DMSO was used.
Cells were homogenized in a Potter S homogenizer in lysis buffer: 50 mM Tris-HCl, 0.8% NP40, 5% glycerol, 150 mM NaCl, 1.5 mM MgCl2, 25 mM NaF, 1 mM sodium vanadate, 1 mM DTT, pH 7.5. […] The material was dounced 10 times using a mechanized POTTER S, transferred to 50 mL falcon tubes, incubated for 30 minutes on ice and spun down for 10 minutes at 20,000 g at 4° C. (10,000 rpm in Sorvall SLA600, precooled). […] (33.500 rpm in Ti50.2, precooled). The supernatant was transferred again to a fresh 50 mL falcon tube, the protein concentration was determined by a Bradford assay (BioRad) and samples containing 50 mg of protein per aliquot were prepared. The samples were immediately used for experiments or frozen in liquid nitrogen and stored frozen at −80° C.
Cell lysate (approximately 50 mg protein per plate) was thawed in a water bath at room temperature and then stored on ice. […] The diluted cell lysate was stored on ice. Mixed Molt4/Ramos lysate was prepared by combining one volume of Molt4 lysate and two volumes of Ramos lysate (ratio 1:2).
Plates were sealed and incubated for 3 hours in a cold room on a plate shaker (Heidolph tiramax 1000) at 750 rpm. Afterwards the plate was washed 3 times with 230 μL washing buffer (1×DP 0.4% NP40). […] The eluate was frozen quickly at −80° C. and stored at −20° C.
Afterwards the membrane was washed twice for 10 minutes with PBS buffer containing 0.2% Tween 20 at room temperature. […] Afterwards the membrane was washed twice for 10 minutes each with 1×PBS buffer containing 0.2% Tween 20 at room temperature. Then the membrane was rinsed once with PBS buffer to remove residual Tween 20. The membrane was kept in PBS buffer at 4° C. and then scanned with the Odyssey instrument. Fluorescence signals were recorded and analysed according to the instructions of the manufacturer.

T1 sequence (P29597 whole entry): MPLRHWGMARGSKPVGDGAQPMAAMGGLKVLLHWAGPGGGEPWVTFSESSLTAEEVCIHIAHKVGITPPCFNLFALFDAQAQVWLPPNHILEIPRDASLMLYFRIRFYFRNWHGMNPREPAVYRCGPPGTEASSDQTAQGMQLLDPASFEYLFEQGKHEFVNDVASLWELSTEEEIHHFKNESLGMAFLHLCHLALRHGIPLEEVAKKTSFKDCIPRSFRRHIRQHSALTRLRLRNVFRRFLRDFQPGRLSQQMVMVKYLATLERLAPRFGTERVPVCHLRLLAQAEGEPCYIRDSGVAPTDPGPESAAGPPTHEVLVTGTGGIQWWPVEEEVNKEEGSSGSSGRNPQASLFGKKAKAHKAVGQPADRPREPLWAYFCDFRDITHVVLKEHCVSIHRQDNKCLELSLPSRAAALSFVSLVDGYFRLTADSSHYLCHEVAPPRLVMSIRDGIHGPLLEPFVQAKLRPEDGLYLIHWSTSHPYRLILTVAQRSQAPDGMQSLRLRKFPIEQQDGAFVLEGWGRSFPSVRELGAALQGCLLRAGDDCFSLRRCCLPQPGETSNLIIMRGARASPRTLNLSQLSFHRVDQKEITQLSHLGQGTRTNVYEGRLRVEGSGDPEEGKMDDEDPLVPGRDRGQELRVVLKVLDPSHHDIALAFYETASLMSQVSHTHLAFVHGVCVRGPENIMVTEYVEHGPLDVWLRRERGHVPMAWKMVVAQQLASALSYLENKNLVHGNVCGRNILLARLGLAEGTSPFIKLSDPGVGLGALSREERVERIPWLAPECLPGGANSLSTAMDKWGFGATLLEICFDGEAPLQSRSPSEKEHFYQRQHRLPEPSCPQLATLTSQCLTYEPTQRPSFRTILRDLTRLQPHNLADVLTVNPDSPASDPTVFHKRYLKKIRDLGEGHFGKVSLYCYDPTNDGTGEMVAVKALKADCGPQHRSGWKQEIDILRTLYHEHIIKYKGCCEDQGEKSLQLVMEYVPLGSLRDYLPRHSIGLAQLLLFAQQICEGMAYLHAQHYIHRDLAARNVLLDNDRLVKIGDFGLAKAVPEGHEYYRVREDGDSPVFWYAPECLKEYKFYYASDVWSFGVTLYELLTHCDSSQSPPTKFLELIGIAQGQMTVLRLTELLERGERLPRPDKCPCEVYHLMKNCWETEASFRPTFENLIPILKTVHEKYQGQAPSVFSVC

Row | Compound | IC50 (TYK2) [nM] | IC50 (JAK2) [nM] | IC50 (JAK1) [nM]
1 | Cn1cc(Nc2ncc(Cl)c(N[C@H](CO)c3ccccc3)n2)cn1 [Compound 4] | 1000 to 10000 | 1000 to 10000 | 1000 to 10000
2 | Cn1cc(Nc2ncc(C(F)(F)F)c(N[C@H](CO)c3ccccc3)n2)cn1 [Compound 6] | ≥ 10000 | ≥ 10000 | > 10000
3 | Cn1cc(Nc2ncc(Cl)c(NC(C)(CO)c3ccccc3)n2)cn1 (stereo not drawn) [Compound 7] | 1000 to 10000 | ≥ 10000 | 1000 to 10000
4 | OCCn1cc(Nc2ncc(F)c(N[C@H](CO)c3ccccc3)n2)cn1 [Compound 10] | 1000 to 10000 | ≥ 10000 | 1000 to 10000
5 | Cn1cc(-c2cccc(C(CO)Nc3nc(Nc4cnn(CCO)c4)ncc3Cl)c2)cn1 (stereo not drawn) [Compound 94] | ≥ 10000 | ≥ 10000 | 1000 to 10000
6 | CCn1cc(Nc2ncc(Cl)c(N[C@H](CO)c3cccnc3)n2)cn1 [Compound 97] | 1000 to 10000 | 1000 to 10000 | 1000 to 10000
7 | CNC(=O)Cn1cc(Nc2ncc(Cl)c(N[C@H](CO)c3ccccc3OC)n2)cn1 [Compound 98] | 100 to 1000 | 1000 to 10000 | 100 to 1000
8 | CNC(=O)Cn1cc(Nc2ncc(Cl)c(N[C@H](CO)c3cccc(OC)c3)n2)cn1 [Compound 99] | 1000 to 10000 | ≥ 10000 | 1000 to 10000
9 | CNC(=O)Cn1cc(Nc2ncc(Cl)c(N[C@H](CO)c3ccccc3F)n2)cn1 [Compound 100] | 1000 to 10000 | 1000 to 10000 | 100 to 1000
10 | COc1cccc([C@@H](CO)Nc2nc(Nc3cnn(CC(=O)N4CCOCC4)c3)ncc2Cl)c1 [Compound 102] | 100 to 1000 | ≥ 10000 | 100 to 1000
11 | O=C(Cn1cc(Nc2ncc(Cl)c(N[C@H](CO)c3ccccc3F)n2)cn1)N1CCOCC1 [Compound 103] | 100 to 1000 | 1000 to 10000 | 100 to 1000
12 | COc1ccccc1[C@@H](CO)Nc1nc(Nc2cnn(C(C)C)c2)ncc1Cl [Compound 105] | 1000 to 10000 | 100 to 1000 | 1000 to 10000
13 | COc1cccc([C@@H](CO)Nc2nc(Nc3cnn(C(C)C)c3)ncc2Cl)c1 [Compound 106] | 1000 to 10000 | 1000 to 10000 | > 10000
14 | CC(C)n1cc(Nc2ncc(Cl)c(N[C@H](CO)c3cccnc3)n2)cn1 [Compound 107] | 1000 to 10000 | 1000 to 10000 | 1000 to 10000
15 | NC(=O)Cn1cc(Nc2ncc(F)c(N[C@H](CO)c3ccccc3)n2)cn1 [Compound 108] | 1000 to 10000 | ≥ 10000 | 1000 to 10000
16 | CCn1cc(Nc2ncc(Cl)c(N[C@H](CO)c3ccccc3F)n2)cn1 [Compound 109] | 1000 to 10000 | 1000 to 10000 | 1000 to 10000
17 | CC(C)n1cc(Nc2ncc(Cl)c(N[C@H](CO)c3ccccc3F)n2)cn1 [Compound 110] | 1000 to 10000 | 100 to 1000 | 1000 to 10000
18 | CC(C)OCCn1cc(Nc2ncc(Cl)c(N[C@H](CO)c3ccccc3)n2)cn1 [Compound 114] | 1000 to 10000 | 1000 to 10000 | 1000 to 10000
19 | C[C@@H](CO)NC(=O)Cn1cc(Nc2ncc(Cl)c(N[C@H](CO)c3ccccc3F)n2)cn1 [Compound 116] | 100 to 1000 | 1000 to 10000 | 100 to 1000

Now from value to molecule:

Row | IC50 (TYK2) [nM] | IC50 (JAK2) [nM] | IC50 (JAK1) [nM] | Compound
20 | ≥ 10000 | 1000 to 10000 | 1000 to 10000 | CC[C@@H](Nc1nc(Nc2cnn(C)c2)ncc1Cl)c1ccccc1 [Compound 5]
21 | ≥ 10000 | ≥ 10000 | > 10000 | Cn1cc(Nc2ncc(C(F)(F)F)c(NC(C)(CO)c3ccccc3)n2)cn1 (stereo not drawn) [Compound 8]
22 | 1000 to 10000 | 1000 to 10000 | 100 to 1000 | OCCn1cc(Nc2ncc(Cl)c(N[C@H](CO)c3ccccc3)n2)cn1 [Compound 9]
23 | 1000 to 10000 | 100 to 1000 | 100 to 1000 | CCn1cc(Nc2ncc(Cl)c(N[C@H](CO)c3ccccc3OC)n2)cn1 [Compound 95]
24 | 1000 to 10000 | ≥ 10000 | 1000 to 10000 | CCn1cc(Nc2ncc(Cl)c(N[C@H](CO)c3cccc(OC)c3)n2)cn1 [Compound 96]
25 | < 100 | 1000 to 10000 | 100 to 1000 | COc1ccccc1[C@@H](CO)Nc1nc(Nc2cnn(CC(=O)N3CCOCC3)c2)ncc1Cl [Compound 101]
26 | 100 to 1000 | 1000 to 10000 | 100 to 1000 | O=C(Cn1cc(Nc2ncc(Cl)c(N[C@H](CO)c3cccnc3)n2)cn1)N1CCOCC1 [Compound 104]
27 | 1000 to 10000 | ≥ 10000 | 1000 to 10000 | CNC(=O)Cn1cc(Nc2ncc(F)c(N[C@H](CO)c3ccccc3)n2)cn1 [Compound 111]
28 | 100 to 1000 | ≥ 10000 | 1000 to 10000 | O=C(Cn1cc(Nc2ncc(F)c(N[C@H](CO)c3ccccc3)n2)cn1)N1CCOCC1 [Compound 112]
29 | 1000 to 10000 | 1000 to 10000 | 1000 to 10000 | NCCCn1cc(Nc2ncc(Cl)c(N[C@H](CO)c3ccccc3)n2)cn1 [Compound 113]
30 | 100 to 1000 | 1000 to 10000 | 100 to 1000 | CC(C)NC(=O)Cn1cc(Nc2ncc(Cl)c(N[C@H](CO)c3ccccc3F)n2)cn1 [Compound 115]
31 | 1000 to 10000 | 1000 to 10000 | 1000 to 10000 | Cn1cc(Nc2ncc(Cl)c(NC(CO)c3ccccc3Cl)n2)cn1 (stereo not drawn) [Compound 117]
32 | 100 to 1000 | 1000 to 10000 | 100 to 1000 | NC(=O)Cn1cc(Nc2ncc(Cl)c(NC(CO)c3ccccc3Cl)n2)cn1 (stereo not drawn) [Compound 118]
